Assay results reported in the CATMoS acute toxicity set (Mansouri et al. 2021).
“And” between values parts separate entries of the source, which are not always exact repeats. Identical values can stand only once.

experiment: rat acute oral toxicity; conditions: in vivo

Compound | LD50
CN(C)C(=O)Nc1ccc(Oc2ccc(Cl)cc2)cc1 | 3000 mg/kg
COCCCNc1nc(NCCCOC)nc(SC)n1 | 1400 mg/kg
CC(=O)CC(C)C | 2080 mg/kg
O=C=NCc1cccc(CN=C=O)c1 | 3200 mg/kg
CCCC=C(C=O)CC | 3000 mg/kg
CC(C)CN | 224 mg/kg
CC(C)[C@H](C(=O)O[C@H](C#N)c1cccc(Oc2ccccc2)c1)c1ccc(Cl)cc1 | 88 mg/kg
CC(=O)C(C)C | 148 mg/kg
NC(=S)Nc1cccc2ccccc12 | 3 mg/kg
NNC(N)=S | 9.16 mg/kg
O=C(O)C=CC(=O)O | 708 mg/kg
O=c1n(CC2CO2)c(=O)n(CC2CO2)c(=O)n1CC1CO1 (stereo not drawn) | 222 mg/kg
CN(C)CCCN1c2ccccc2Sc2ccc(Cl)cc21 | 142 mg/kg and 143 mg/kg
Oc1cccc(O)c1 | 301 mg/kg
O=P1(N(CCCl)CCCl)NCCCO1 (stereo not drawn) | 100 mg/kg
Clc1cccc(Cl)c1C(Cl)Cl | 1300 mg/kg
N#CC(Br)Br | 245 mg/kg
CCOCCO | 1520 mg/kg
CCCCCCCCCCCCCC[N+](C)(C)CCCCCCCCCCCCCC | 930 mg/kg
CC(C)[C@H](C(=O)OC(C#N)c1cccc(Oc2ccccc2)c1)c1ccc(OC(F)F)cc1 (stereo partly drawn) | 67 mg/kg
CCC(=O)OCc1ccccc1 | 3300 mg/kg
CC1=CC(=O)NS(=O)(=O)O1 | 5440 mg/kg
COP(=O)(OC)C(O)C(Cl)(Cl)Cl (stereo not drawn) | 154 mg/kg
C=C(C)C(=O)OCCN=C=O | 670 mg/kg

Compound | LD50
O=C(Nc1ccccc1)Nc1ccnc(Cl)c1 | 4900 mg/kg
COP(=S)(OC)SCc1nc(N)nc(N)n1 | 890 mg/kg
CN | 80 mg/kg
OCCOc1ccccc1 | 1370 mg/kg
CC(C)(C)CC(C)(C)c1ccc(O)cc1 | 4040 mg/kg
CCCCOC(=O)c1ccccc1C(=O)OCCCC | 6300 mg/kg
CCCC1CO1 (stereo not drawn) | 1330 mg/kg
O=c1[nH]c(=O)n(Cl)c(=O)n1Cl | 1170 mg/kg and 1420 mg/kg
O=[N+]([O-])c1ccc(Cl)c(Cl)c1 | 625 mg/kg
CC(=O)CC(=O)Nc1ccccc1C | 1020 mg/kg
O=S1(=O)CCCC1 | 1970 mg/kg
COP(=S)(OC)Oc1ccc(S(=O)(=O)N(C)C)cc1 | 28 mg/kg
CN(C)C=O | 3000 mg/kg
O=c1sc2ccccc2c(O)c1C1CC(c2ccc(-c3ccc(Br)cc3)cc2)Cc2ccccc21 (stereo not drawn) | 0.55 mg/kg
C=CCO | 64 mg/kg
Clc1ccc(Cl)cc1 | 500 mg/kg
CNC(=O)Oc1cc(C)cc(C)c1 | 245 mg/kg
Cc1cccc([N+](=O)[O-])c1 | 1070 mg/kg
O=C(Cl)c1ccc(Cl)cc1 | 3150 mg/kg
CCCCCCCCCC(=O)O | 3320 mg/kg
CC(C)OC(=O)Cl | 468 mg/kg
C=CCn1c(=O)n(CC=C)c(=O)n(CC=C)c1=O | 707 mg/kg
Clc1ccc(C2(Cn3cncn3)CC(Br)CO2)c(Cl)c1 (stereo not drawn) | 328 mg/kg
Cc1ccccc1C(OCCN(C)C)c1ccccc1 (stereo not drawn) | 255 mg/kg

Compound | LD50
COCCOCCOCCO | 11300 mg/kg
c1cc[n+]2c(c1)-c1cccc[n+]1CC2 | 220 mg/kg and 120 mg/kg
CC(=O)c1cc2c(cc1C)C(C)(C)C(C)CC2(C)C (stereo not drawn) | 920 mg/kg
CC1(C)[C@H]2[C@H](O)OC(=O)[C@H]21 | 200 mg/kg
NC(=O)c1cccnc1 | 3500 mg/kg
c1ccc(CNc2[nH]cnc3ncnc2-3)cc1 | 1300 mg/kg
c1ccc(-c2ccccn2)nc1 | 100 mg/kg
C[N+](C)(C)CCO | 3400 mg/kg
O=c1nc(O)n(Cl)c(=O)n1Cl | 1670 mg/kg
CCCCC#N | 332 mg/kg
CCCCOC(=O)C(C)Oc1ccc(Oc2ccc(C(F)(F)F)cn2)cc1 (stereo not drawn) | 2910 mg/kg
CC1(C)CC(O)CC(C)(C)N1[O] | 953 mg/kg
Cc1cccc(N)c1C | 930 mg/kg
CCC(N)CO (stereo not drawn) | 800 mg/kg
CC(=O)Oc1ccc(C(c2ccc(OC(C)=O)cc2)c2ccccn2)cc1 | 4300 mg/kg
CCCCNCCCC | 189 mg/kg
CCCCCC(=O)O | 3000 mg/kg
CCCCC(CC)COP(Oc1ccccc1)Oc1ccccc1 (stereo not drawn) | 3840 mg/kg
COc1ccc(C(CN)C2(O)CCCCC2)cc1 (stereo not drawn) | 200 mg/kg
Cc1ccccc1Cc1ccccc1 | 3020 mg/kg
CC(C)(c1ccc(O)cc1)c1ccc(O)cc1 | 3250 mg/kg
CCCCO | 790 mg/kg
CC(C)C(=O)O | 266 mg/kg
CCCN(CC1CC1)c1c([N+](=O)[O-])cc(C(F)(F)F)cc1[N+](=O)[O-] | 1810 mg/kg

Compound | LD50
CCN(CC)C(=O)SCc1ccc(Cl)cc1 | 920 mg/kg
CC[Si](Cl)(Cl)CC | 600 mg/kg
ClCCCBr | 930 mg/kg
C#CCN1CC(=O)N(COC(=O)[C@@H]2[C@@H](C=C(C)C)C2(C)C)C1=O | 900 mg/kg
C=Cc1cc(Br)ccc1Br | 5790 mg/kg
CCCCCCCCCCC(N)CO (stereo not drawn) | 300 mg/kg
C=CC(=O)OCCO | 548 mg/kg
CCCCCCCCCCCC[N+](C)(C)[O-] | 1060 mg/kg
O=[N+]([O-])c1cccc(O)c1 | 328 mg/kg
Cc1ccccc1S(N)(=O)=O | 2400 mg/kg
N#CCC#N | 14 mg/kg
Oc1c(Cl)cc(Cl)c(Cl)c1Cc1c(O)c(Cl)cc(Cl)c1Cl | 56 mg/kg
ClCCl | 1500 mg/kg
N#CSCSc1nc2ccccc2s1 | 679 mg/kg
CCCCCCCCCCCCCCCCCCN(C)C | 2120 mg/kg
C=CCOC(C)=O | 130 mg/kg
NCC1CCCC(CN)C1 (stereo not drawn) | 880 mg/kg
C=CNC=O | 1000 mg/kg
CCOP(=S)(OCC)Oc1cc(C)nc(N(CC)CC)n1 | 140 mg/kg
C=CC(C)(CCC=C(C)C)OC(C)=O (stereo not drawn) | 13900 mg/kg
CNC(=O)CSP(=O)(OC)OC | 25 mg/kg
CC(=O)C1C(=O)C=C(C)OC1=O (stereo not drawn) | 500 mg/kg
C1=CCCC=CCCC=CCC1 | 1780 mg/kg
CCCNCCC | 300 mg/kg

Compound | LD50
Nc1nc[nH]n1 | 1100 mg/kg
COC[C@H](C)N(C(=O)CCl)c1c(C)csc1C | 371 mg/kg
CCCC(=O)Nc1ccc(OCC(O)CNC(C)C)c(C(C)=O)c1 (stereo not drawn) | 3200 mg/kg
Cc1ccccc1O | 121 mg/kg
CSc1ccc2c(c1)N(CCC1CCCCN1C)c1ccccc1S2 (stereo not drawn) | 995 mg/kg
CCOC(=O)CCN(SN(C)C(=O)Oc1cccc2c1OC(C)(C)C2)C(C)C | 105 mg/kg
O=C(OCC1CCC2OC2C1)C1CCC2OC2C1 (stereo not drawn) | 4490 mg/kg
Nc1ccc(Nc2ccccc2)cc1 | 464 mg/kg
O=C(O)c1ccc(C(=O)O)cc1 | 1960 mg/kg
BrC(Br)Br | 933 mg/kg
COCCOCCOC | 4760 mg/kg
CCCCOCCOCCO | 5080 mg/kg
CCCOP(=O)(OCCC)Oc1ccc(SC)cc1 | 61 mg/kg
CN(C)c1nc(=O)n(C2CCCCC2)c(=O)n1C | 1200 mg/kg
N#Cc1ccccc1 | 700 mg/kg
CC[C@H]1OC(=O)C[C@@H](O)[C@H](C)[C@@H](O[C@@H]2O[C@H](C)[C@@H](O)[C@H](N(C)C)[C@H]2O)[C@@H](CCN2C[C@H](C)C[C@H](C)C2)C[C@@H](C)C(=O)C=CC(C)=C[C@@H]1CO[C@@H]1O[C@H](C)[C@@H](O)[C@@H](OC)[C@H]1OC | 800 mg/kg
O=C1C=CC(=O)N1c1ccccc1 | 128 mg/kg
O=C(O)C1CCC(C(=O)O)CC1 (stereo not drawn) | 1900 mg/kg
CC1=C(C(=O)Nc2ccccc2)SCCO1 | 430 mg/kg
CC1(C)C(C(=O)OC(C#N)c2cccc(Oc3ccccc3)c2)C1(C)C (stereo not drawn) | 66.7 mg/kg
ClC1(Cl)C2(Cl)C3(Cl)C4(Cl)C(Cl)(Cl)C5(Cl)C3(Cl)C1(Cl)C5(Cl)C24Cl (stereo not drawn) | 235 mg/kg
CCOP(=O)(OCC)OCC | 1160 mg/kg
CCCCOCN(C(=O)CCl)c1c(CC)cccc1CC | 1740 mg/kg
ClC1=C(Cl)C2(Cl)C3C(Cl)C=CC3C1(Cl)C2(Cl)Cl (stereo not drawn) | 40 mg/kg

Compound | LD50
CS(=O)(=O)O | 200 mg/kg
OCCOCCO | 12600 mg/kg
CCOCCOC(C)=O | 2700 mg/kg
CCc1cccc(CC)c1N | 1800 mg/kg
CNC(=O)ON=C(SC)C(=O)N(C)C | 2.5 mg/kg
CCN(C(=O)N(CC)c1ccccc1)c1ccccc1 | 781 mg/kg
CCC1(c2ccccc2)C(=O)NC(=O)NC1=O | 162 mg/kg
ClC1=C(Cl)C(Cl)(C2(Cl)C(Cl)=C(Cl)C(Cl)=C2Cl)C(Cl)=C1Cl | 1200 mg/kg
CC(C)(C)c1ccc(CSc2cnn(C(C)(C)C)c(=O)c2Cl)cc1 | 570 mg/kg
OCCc1ccccc1 | 1600 mg/kg
CC1(C)C(C=C(Cl)Cl)C1C(=O)OCc1cccc(Oc2ccccc2)c1 (stereo not drawn) | 406 mg/kg
N#CCCCCCCC#N | 238 mg/kg
CC(C)CC=O | 5600 mg/kg
ClCC1CO1 (stereo not drawn) | 65 mg/kg
N#C/N=C1\SCCN1Cc1ccc(Cl)nc1 | 285 mg/kg
CC1(C)COCN1 | 950 mg/kg
Nc1c(Cl)c(F)nc(OCC(=O)O)c1Cl | 2400 mg/kg
CCCCCCC=O | 3200 mg/kg
CC(=O)OCCc1ccccc1 | 3670 mg/kg
CC(=O)O[Si](C)(OC(C)=O)OC(C)=O | 1550 mg/kg
Cc1ccncc1 | 440 mg/kg
CCOCCOCCOCC | 4970 mg/kg
CC(C)(N)Cc1ccccc1 | 151 mg/kg
C=C(C)C(=O)O | 1060 mg/kg

Compound | LD50
O=C(C=Cc1ccccc1)OCc1ccccc1 | 5380 mg/kg
CC(C)c1ccccc1 | 1400 mg/kg
CNP(=O)(OC)Oc1ccc(C(C)(C)C)cc1Cl (stereo not drawn) | 460 mg/kg
CC(=O)Oc1ccccc1C(=O)O | 1280 mg/kg
Oc1nc2ccccc2[nH]1 | 1930 mg/kg
COc1ccc(O)c(C(C)(C)C)c1 | 2910 mg/kg
CN(C)C(=O)Nc1ccccc1 | 6400 mg/kg
NC(=O)NCc1ccccc1 | 2700 mg/kg
CNS(=O)(=O)c1cc(OC)c(N)cc1OC | 815 mg/kg
CCNCCO | 1000 mg/kg
CCOP(=S)(OCC)SCSP(=S)(OCC)OCC | 13 mg/kg
OCCc1ccccn1 | 3840 mg/kg
COP(=S)(OC)Oc1ccc(C#N)cc1 | 580 mg/kg
CCCOCC(C)OCC(C)O (stereo not drawn) | 1500 mg/kg
CC(C)(C)c1cc(C(C)(C)C)c(O)c(C(C)(C)C)c1 | 1610 mg/kg
C/C=C(/C)C(=O)O[C@H]1CCN2CC=C(COC(=O)[C@](O)([C@H](C)OC)C(C)(C)O)[C@H]12 | 110 mg/kg
Cc1ccc(Cl)cc1 | 2100 mg/kg
CCCC(=O)O | 1630 mg/kg
COc1ccc2c3c1O[C@H]1[C@@H](O)C=C[C@H]4[C@@H](C2)N(C)CC[C@@]341 | 427 mg/kg
O=S(=O)(O)c1ccc(Nc2nc(Nc3ccc(/C=C/c4ccc(Nc5nc(Nc6ccc(S(=O)(=O)O)cc6)nc(N(CCO)CCO)n5)cc4S(=O)(=O)O)c(S(=O)(=O)O)c3)nc(N(CCO)CCO)n2)cc1 | 5300 mg/kg
Cc1cccc(N=C=O)c1 | 2930 mg/kg
Nc1cccc([N+](=O)[O-])c1 | 535 mg/kg
CCCCCCCCCCCCNC(=N)N | 566 mg/kg
CCCCCCCCOC(=O)c1ccccc1C(=O)OCCCCCCCC | 47000 mg/kg
